Measured values as given in patent US10406129B2 (priority 2015, dated 2019).
“Also recorded” adds a separate entry of the source. Read-outs that look alike come from different tables or passages of the source.

Tests used:
platelets [1] = conditions: 10 mg daily for three months; stable coronary artery disease patients; cited from earlier work
[2] = Plasma resveratrol concentrations after intake (HPLC), one hour study; type: in vivo, human; conditions: median (interquartile range), n=30
Protocol: Participants were randomized by block design to consumed trans-res or ResArgin™ in random order. Randomization was performed by the study coordinator following a predetermined plan formulated via a web-based random number generator. […] The study included two separate investigations: a one hour study and a two hour study (FIG. 6). During each study visit, which took place after an overnight fast, a baseline measurement of PAT and a blood sample were collected, followed by consumption of the assigned treatment. During the one hour study, PAT measurements and blood samples were collected thirty and […] minutes after the capsules were consumed. During the two hour study, a PAT measurement and blood sample were taken two hours after the capsules were consumed.
Briefly, plasma was treated with acidified methanol [0.5% (v/v) of acetic acid in methanol; precooled to −20° C.] containing an appropriate recovery standard. The mixture was stored at −80 C for 12 hours to allow for cryo-assisted protein precipitation, and then centrifuged for 15 min at 16,500×g. The supernatant fraction was transferred and its volume reduced to less than 50 μL by removing the solvents under vacuum with a […] SpeedVac Concentrator (Thermo Electron Corporation, Milford, Mass.). […]

platelets [3] = conditions: in vitro; 10-1,000 μM; dose dependent; cited from earlier work
postmenopausal women = test: Microvascular function by peripheral arterial tonometry (Endo-PAT2000) after intake of 90 mg ResArgin or trans-res; type: in vivo, human; conditions: combined data
platelets [4] = test: Platelet function by whole blood/optical lumi-aggregometer after intake; type: in vivo, human
Protocol: Platelet reactivity during clinical screening was assessed by a PFA-100 (Siemens, Deerfield, Ill.), which measures platelet function by simulating arterial hemostasis under blood flow shear stress. During the intervention, platelet function was assessed by a whole blood/optical lumi-aggregometer (Chrono-log Model 700, Havertown, Pa.). Briefly, platelet aggregation was measured via electrical impedence (or electrical resistance), whereas lumi-aggregometry was used to examine aggregation together with adenosine triphosphate (hereafter, “ATP”) release, which is determined with firefly luciferin-luciferase system. […] One of the following agonists was used to stimulate platelets: collagen (1 μL and 5 μL), AA (10 μL) or ADP (10 μL). ATP release was measured only when platelets were activated with ADP. The aggregation was measured over a period of six minutes, following the addition of an agonist.

[5] = tested on: endothelial nitric oxide synthase (eNOS); conditions: 1 μM; human umbilical vein endothelial cells; cited from earlier work
platelets [6] = conditions: 4 mg/kg/day; hypercholesterolemic rat model; cited from earlier work
[7] = platelets stimulated with 10 μL arachidonic acid, one hour after intake

Plasma resveratrol concentration ([2]; 30 minutes after intake of 90 mg)	Plasma resveratrol concentration ([2]; 60 minutes after intake of 90 mg)	SMILES	Platelet aggregation (platelets [1])	Platelet aggregation (platelets [3])	Change in FRHI compared to baseline (postmenopausal women; one and two hours post-consumption)	Significant improvement in RHI compared to baseline (postmenopausal women; one hour after intake)	Slope, change from baseline (platelets [4]; lumi-aggregometry with 10 μL ADP, one-hour post consumption)	Slope, change from baseline (platelets [4]; platelets stimulated with 1 μL collagen, one hour after consumption)	Lag time, change from baseline (platelets [4]; platelets stimulated with 1 μL collagen, one-hour post consumption)	Area under the curve (AUC) of aggregation, change from baseline (platelets [4]; [7])	Maximum aggregation, change from baseline (platelets [4]; [7])	Platelet function, change from baseline (platelets [4]; stimulation with 5 μL collagen)	Expression of eNOS [5]	ADP-induced platelet aggregation (platelets [6])
2.04 (0.82, 2.54)	2.65 (1.69, 3.44)	Oc1ccc(/C=C/c2cc(O)cc(O)c2)cc1 [trans-res, Trans-resveratrol]	significantly reduced	significantly reduced	No differences; also recorded: no changes	not observed	significant decrease	not	significant increase	no changes	no changes	no significant changes	up-regulated	–
–	–	Oc1ccc(C=Cc2cc(O)cc(O)c2)cc1 [Resveratrol, 3,5,4′-trihydroxystilbene]	–	–	–	–	–	–	–	–	–	–	–	inhibited
